Assay results published in US10077261B2, “Imidazolin-5-one derivative useful as FASN inhibitors for the treatment of cancer” (Janssen Pharmaceutica NV, priority 2012, dated 2018).

Biological target: T1, hFASN enzyme (full length) (Homo sapiens, UniProt P49327)
T1 construct: 10 μL hFASN enzyme (full length, 300 ng, purified in house); made in house
Assay: Fatty Acid Synthase (FASN) inhibition scintillation proximity assay
Format: biochemical
Conditions: for inhibition at 10 µM: read-out: Human FASN % inhibition @ 10 μM, 10 μM test compound; for IC50: read-out: Human FASN pIC50 (converted)
How it was run: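 Scintillation proximity format: in-house full-length enzyme, 300 ng per well, pH 7.5 phosphate/DTT buffer, ³H-acetyl-CoA and malonyl-CoA. Emission counted on LEADseeker at 610 nm at least 24 h after stopping.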

T1 sequence (P49327 whole entry): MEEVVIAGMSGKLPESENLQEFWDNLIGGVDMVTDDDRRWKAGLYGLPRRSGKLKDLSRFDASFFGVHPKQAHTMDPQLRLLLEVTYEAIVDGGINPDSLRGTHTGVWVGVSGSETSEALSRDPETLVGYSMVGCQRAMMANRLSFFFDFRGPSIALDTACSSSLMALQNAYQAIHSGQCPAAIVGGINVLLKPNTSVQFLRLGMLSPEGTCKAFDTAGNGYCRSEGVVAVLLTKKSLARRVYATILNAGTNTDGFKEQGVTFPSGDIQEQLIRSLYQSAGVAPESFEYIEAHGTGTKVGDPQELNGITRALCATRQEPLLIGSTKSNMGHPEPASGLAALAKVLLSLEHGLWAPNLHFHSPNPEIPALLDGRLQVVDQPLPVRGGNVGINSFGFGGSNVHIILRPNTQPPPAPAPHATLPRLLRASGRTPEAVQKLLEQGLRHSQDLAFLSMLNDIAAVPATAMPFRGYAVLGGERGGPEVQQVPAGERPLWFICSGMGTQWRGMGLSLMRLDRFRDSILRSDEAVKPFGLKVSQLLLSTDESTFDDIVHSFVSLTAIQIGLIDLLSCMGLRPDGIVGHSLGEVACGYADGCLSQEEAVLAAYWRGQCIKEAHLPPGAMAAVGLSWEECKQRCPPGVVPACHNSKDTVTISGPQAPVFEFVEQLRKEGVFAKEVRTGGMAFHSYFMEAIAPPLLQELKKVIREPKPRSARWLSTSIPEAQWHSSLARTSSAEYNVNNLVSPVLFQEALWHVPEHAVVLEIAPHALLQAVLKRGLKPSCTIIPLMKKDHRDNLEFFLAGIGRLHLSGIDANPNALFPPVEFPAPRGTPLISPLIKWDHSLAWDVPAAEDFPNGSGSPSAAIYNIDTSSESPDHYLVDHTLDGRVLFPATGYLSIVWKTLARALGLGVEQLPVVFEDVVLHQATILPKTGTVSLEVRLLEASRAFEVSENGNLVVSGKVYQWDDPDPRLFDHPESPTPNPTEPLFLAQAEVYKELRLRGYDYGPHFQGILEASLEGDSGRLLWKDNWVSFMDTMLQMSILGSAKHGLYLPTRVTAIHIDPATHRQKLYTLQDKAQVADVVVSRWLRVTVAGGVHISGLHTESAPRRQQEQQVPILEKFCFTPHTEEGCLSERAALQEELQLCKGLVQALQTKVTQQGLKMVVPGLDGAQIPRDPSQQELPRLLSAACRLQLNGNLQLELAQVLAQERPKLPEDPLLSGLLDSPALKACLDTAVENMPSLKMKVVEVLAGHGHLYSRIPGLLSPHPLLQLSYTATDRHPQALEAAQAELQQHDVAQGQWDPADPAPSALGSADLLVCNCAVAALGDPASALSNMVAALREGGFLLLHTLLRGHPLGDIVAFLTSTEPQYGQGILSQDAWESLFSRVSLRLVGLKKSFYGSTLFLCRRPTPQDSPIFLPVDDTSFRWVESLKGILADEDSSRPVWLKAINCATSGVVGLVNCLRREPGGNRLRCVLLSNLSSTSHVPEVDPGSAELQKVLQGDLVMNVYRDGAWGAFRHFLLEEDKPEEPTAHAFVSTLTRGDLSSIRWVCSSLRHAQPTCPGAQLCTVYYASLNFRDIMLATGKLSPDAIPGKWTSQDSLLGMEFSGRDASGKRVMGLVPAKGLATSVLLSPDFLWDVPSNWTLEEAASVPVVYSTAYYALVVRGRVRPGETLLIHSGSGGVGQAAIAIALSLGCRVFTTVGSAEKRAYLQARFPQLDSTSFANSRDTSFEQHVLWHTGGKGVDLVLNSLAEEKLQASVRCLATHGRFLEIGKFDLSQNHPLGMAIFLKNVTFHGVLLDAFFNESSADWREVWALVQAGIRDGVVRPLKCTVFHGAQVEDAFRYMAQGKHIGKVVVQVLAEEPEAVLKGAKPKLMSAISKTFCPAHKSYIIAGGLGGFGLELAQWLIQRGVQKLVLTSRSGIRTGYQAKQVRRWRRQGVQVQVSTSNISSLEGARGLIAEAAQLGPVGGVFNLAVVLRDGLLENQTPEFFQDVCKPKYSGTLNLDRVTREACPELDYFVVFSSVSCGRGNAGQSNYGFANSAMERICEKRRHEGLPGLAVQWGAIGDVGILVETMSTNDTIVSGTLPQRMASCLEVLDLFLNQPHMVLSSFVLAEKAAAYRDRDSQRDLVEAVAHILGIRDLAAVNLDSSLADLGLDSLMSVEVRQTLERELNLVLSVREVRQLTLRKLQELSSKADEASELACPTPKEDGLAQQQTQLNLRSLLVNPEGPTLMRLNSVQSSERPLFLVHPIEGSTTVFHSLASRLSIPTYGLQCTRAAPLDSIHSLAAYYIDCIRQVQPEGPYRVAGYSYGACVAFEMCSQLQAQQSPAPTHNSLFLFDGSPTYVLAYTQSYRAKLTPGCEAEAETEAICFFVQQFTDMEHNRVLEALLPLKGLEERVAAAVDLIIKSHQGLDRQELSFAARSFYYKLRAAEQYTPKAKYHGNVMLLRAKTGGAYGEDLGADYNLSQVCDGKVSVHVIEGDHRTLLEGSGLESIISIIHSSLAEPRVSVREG

Compound	inhibition at 10 µM	IC50
CC(C)N1CCC2(CC1)N=C(c1ccc(-c3ccc4c(cnn4C)c3)cc1)N(CC1CN(C(=O)C3CC3)C1)C2=O [compound 169, 3-{[1-(Cyclopropylcarbonyl)azetidin-3-yl]methyl}-8-(1-methylethyl)-2-[4-(1-methyl-1H-indazol-5-yl)phenyl]-1,3,8-triazaspiro[4.5]dec-1-en-4-one]	45.7%	> 10000 nM
Cn1ncc2cc(-c3ccc(C4=NC5(CCN(CCO)CC5)C(=O)N4CC4CN(C(=O)C5CC5)C4)cc3)ccc21 [compound 170, 3-{[1-(Cyclopropylcarbonyl)azetidin-3-yl]methyl}-8-(2-hydroxyethyl)-2-[4-(1-methyl-1H-indazol-5-yl)phenyl]-1,3,8-triazaspiro[4.5]dec-1-en-4-one]	55.6%	7940 nM
Cc1cc2cc(-c3ccc(C4=NC5(CCN(C(=O)C6CC6)CC5)C(=O)N4C[C@@H]4CCN(C(=O)C5CC5)C4)cc3)ccc2o1 [compound 171, 8-(Cyclopropylcarbonyl)-3-{[(3R)-1-(cyclopropylcarbonyl)pyrrolidin-3-yl]methyl}-2-[4-(2-methyl-1-benzofuran-5-yl)phenyl]-1,3,8-triazaspiro[4.5]dec-1-en-4-one]	107%	214 nM
Cc1cc2cc(-c3ccc(C4=NC5(CCN(C(=O)C(C)C)CC5)C(=O)N4C[C@@H]4CCN(C(=O)C5CC5)C4)cc3)ccc2o1 [compound 172, 3-{[(3R)-1-(Cyclopropylcarbonyl)pyrrolidin-3-yl]methyl}-2-[4-(2-methyl-1-benzofuran-5-yl)phenyl]-8-(2-methylpropanoyl)-1,3,8-triazaspiro[4.5]dec-1-en-4-one]	108%	251 nM
Cc1cc2cc(-c3ccc(C4=NC5(CCN(CCO)CC5)C(=O)N4C[C@@H]4CCN(C(=O)C5CC5)C4)cc3)ccc2o1 [compound 173, 3-{[(3R)-1-(Cyclopropylcarbonyl)pyrrolidin-3-yl]methyl}-8-(2-hydroxyethyl)-2-[4-(2-methyl-1-benzofuran-5-yl)phenyl]-1,3,8-triazaspiro[4.5]dec-1-en-4-one]	97%	380 nM
Cc1cc2cc(-c3ccc(C4=NC5(CCN(C(=O)CN(C)C)CC5)C(=O)N4C[C@@H]4CCN(C(=O)C5CC5)C4)cc3)ccc2o1 [compound 174, 3-{[(3R)-1-(Cyclopropylcarbonyl)pyrrolidin-3-yl]methyl}-8-(N,N-dimethylglycyl)-2-[4-(2-methyl-1-benzofuran-5-yl)phenyl]-1,3,8-triazaspiro[4.5]dec-1-en-4-one]	109%	245 nM
Cc1cc2cc(-c3ccc(C4=NC5(CC5)C(=O)N4CC4CN(C(=O)C5CC5)C4)cc3)ccc2o1 [compound 178, 6-{[1-(Cyclopropylcarbonyl)azetidin-3-yl]methyl}-5-[4-(2-methyl-1-benzofuran-5-yl)phenyl]-4,6-diazaspiro[2.4]hept-4-en-7-one]	108%	102 nM
Cc1cc2cc(-c3ccc(C4=NC5(CC5)C(=O)N4CC4CN(C(=O)C5CC5)C4)cc3C)ccc2o1 [compound 179, 6-{[1-(Cyclopropylcarbonyl)azetidin-3-yl]methyl}-5-[3-methyl-4-(2-methyl-1-benzofuran-5-yl)phenyl]-4,6-diazaspiro[2.4]hept-4-en-7-one]	59.5%	6310 nM
Cc1cc(C2=NC3(CC3)C(=O)N2C[C@@H]2CCN(C(=O)C3CC3)C2)ccc1-c1ccc2occc2c1 [compound 180, 5-[4-(1-Benzofuran-5-yl)-3-methylphenyl]-6-{[(3R)-1-(cyclopropylcarbonyl)pyrrolidin-3-yl]methyl}-4,6-diazaspiro[2.4]hept-4-en-7-one]	101%	138 nM
CC(=O)N1CCC2(CC1)N=C(c1ccc(-c3ccc4sc(C)c(C)c4c3)cc1)N(C[C@@H]1CCN(C(=O)C3CC3)C1)C2=O [compound 181, 8-Acetyl-3-{[(3R)-1-(cyclopropylcarbonyl)pyrrolidin-3-yl]methyl}-2-[4-(2,3-dimethyl-1-benzothiophen-5-yl)phenyl]-1,3,8-triazaspiro[4.5]dec-1-en-4-one]	109%	123 nM
Cc1sc2ccc(-c3ccc(C4=NC5(CCN(C(=O)CN(C)C)CC5)C(=O)N4C[C@@H]4CCN(C(=O)C5CC5)C4)cc3)cc2c1C [compound 182, 3-{[(3R)-1-(Cyclopropylcarbonyl)pyrrolidin-3-yl]methyl}-2-[4-(2,3-dimethyl-1-benzothiophen-5-yl)phenyl]-8-(N,N-dimethylglycyl)-1,3,8-triazaspiro[4.5]dec-1-en-4-one]	104%	138 nM
Cc1sc2ccc(-c3ccc(C4=NC5(CCN(C(=O)C(C)C)CC5)C(=O)N4C[C@@H]4CCN(C(=O)C5CC5)C4)cc3)cc2c1C [compound 183, 3-{[(3R)-1-(Cyclopropylcarbonyl)pyrrolidin-3-yl]methyl}-2-[4-(2,3-dimethyl-1-benzothiophen-5-yl)phenyl]-8-(2-methylpropanoyl)-1,3,8-triazaspiro[4.5]dec-1-en-4-one]	109%	138 nM
Cc1sc2ccc(-c3ccc(C4=NC5(CCN(C(C)C)CC5)C(=O)N4C[C@@H]4CCN(C(=O)C5CC5)C4)cc3)cc2c1C [compound 184, 3-{[(3R)-1-(Cyclopropylcarbonyl)pyrrolidin-3-yl]methyl}-2-[4-(2,3-dimethyl-1-benzothiophen-5-yl)phenyl]-8-(1-methylethyl)-1,3,8-triazaspiro[4.5]dec-1-en-4-one]	107%	437 nM
Cc1cc2cc(-c3ccc(C4=NC5(CCN(C(C)C)CC5)C(=O)N4C[C@@H]4CCN(C(=O)C5CC5)C4)cc3)ccc2o1 [compound 186, 3-{[(3R)-1-(Cyclopropylcarbonyl)pyrrolidin-3-yl]methyl}-2-[4-(2-methyl-1-benzofuran-5-yl)phenyl]-8-(1-methylethyl)-1,3,8-triazaspiro[4.5]dec-1-en-4-one]	80.4%	1550 nM
CC(C)N1CCC2(CC1)N=C(c1ccc(-c3ccc4[nH]ccc4c3)cc1)N(CC1CN(C(=O)C3CC3)C1)C2=O [compound 187, 3-{[1-(Cyclopropylcarbonyl)azetidin-3-yl]methyl}-2-[4-(1H-indol-5-yl)phenyl]-8-(1-methylethyl)-1,3,8-triazaspiro[4.5]dec-1-en-4-one]	96.5%	603 nM
CC(C)N1CCC2(CC1)N=C(c1ccc(-c3ccc4[nH]ncc4c3)cc1)N(CC1CN(C(=O)C3CC3)C1)C2=O [compound 188, 3-{[1-(Cyclopropylcarbonyl)azetidin-3-yl]methyl}-2-[4-(1H-indazol-5-yl)phenyl]-8-(1-methylethyl)-1,3,8-triazaspiro[4.5]dec-1-en-4-one]	50.4%	~10000 nM
O=C1N(C[C@@H]2CCN(S(=O)(=O)N3CCCC3)C2)C(c2ccc(-c3ccc4occc4c3)cc2)=NC12CCCC2 [compound 189, 2-[4-(1-Benzofuran-5-yl)phenyl]-3-{[(3S)-1-(pyrrolidin-1-ylsulfonyl)pyrrolidin-3-yl]methyl}-1,3-diazaspiro[4.4]non-1-en-4-one]	16.7%	> 10000 nM
O=C([C@@H]1CCCO1)N1CC[C@@H](CN2C(=O)C3(CCCC3)N=C2c2ccc(-c3ccc4occc4c3)cc2)C1 [compound 190, 2-(4-(Benzofuran-5-yl)phenyl)-3-(((R)-1-((S)-tetrahydro-furan-2-carbonyl)pyrrolidin-3-yl)methyl)-1,3-diazaspiro[4.4]non-1-en-4-one]	105%	295 nM
O=C([C@H]1CCCO1)N1CC[C@@H](CN2C(=O)C3(CCCC3)N=C2c2ccc(-c3ccc4occc4c3)cc2)C1 [compound 191, 2-[4-(1-Benzofuran-5-yl)phenyl]-3-({(3R)-1-[(2R)-tetrahydro-furan-2-ylcarbonyl]pyrrolidin-3-yl}methyl)-1,3-diazaspiro[4.4]non-1-en-4-one]	108%	79.4 nM
N#CC1(C(=O)N2CC[C@@H](CN3C(=O)C4(CCCC4)N=C3c3ccc(-c4ccc5occc5c4)cc3)C2)CC1 [compound 192, 1-{[(3R)-3-({2-[4-(1-Benzofuran-5-yl)phenyl]-4-oxo-1,3-diazaspiro[4.4]non-1-en-3-yl}methyl)pyrrolidin-1-yl]carbonyl}cyclopropancarbonitrile]	94.3%	589 nM
O=C(C1CC1)N1CCC[C@@H](CN2C(=O)C3(CC3)N=C2c2ccc(-c3ccc4[nH]ncc4c3)cc2)C1 [compound 389, 6-{[(3R)-1-(Cyclopropylcarbonyl)piperidin-3-yl]methyl}-5-[4-(1H-indazol-5-yl)phenyl]-4,6-diazaspiro[2.4]hept-4-en-7-one]	56%	7240 nM
Cc1cc(C2=NC3(CC3)C(=O)N2CC2CN(C(=O)C3CC3)C2)ccc1-c1ccc2occc2c1 [compound 393, 5-[4-(1-Benzofuran-5-yl)-3-methylphenyl]-6-{[1-(cyclopropylcarbonyl)azetidin-3-yl]methyl}-4,6-diazaspiro[2.4]hept-4-en-7-one]	62%	~2880 nM
O=C(C1CC1)N1CCC[C@@H](CN2C(=O)C3(CC3)N=C2c2ccc(-c3ccc4sccc4c3)cc2)C1 [compound 394, 5-[4-(1-Benzothiophen-5-yl)phenyl]-6-{[(3R)-1-(cyclopropylcarbonyl)piperidin-3-yl]methyl}-4,6-diazaspiro[2.4]hept-4-en-7-one]	84%	1070 nM
O=C(C1CC1)N1CCC[C@@H](CN2C(=O)C3(CC3)N=C2c2ccc(-c3ccc4occc4c3)cc2)C1 [compound 395, 5-[4-(1-Benzofuran-5-yl)phenyl]-6-{[(3R)-1-(cyclopropylcarbonyl)piperidin-3-yl]methyl}-4,6-diazaspiro[2.4]hept-4-en-7-one]	54%	6310 nM
